US7973083B2, “Pesticidally active compounds” (priority 2003, dated 2011)

Columns and labels:
Format in all cases: in vivo
Amaranthus retroflexus = assay: Field test, weed control (Table I); conditions: scale 0-100
Method: (§1) Field tests were conducted in the following way: Corn was seeded with standard sowing implements and grown under natural conditions until the 2-3 leaf stage of corn was reached. Corn with or without insecticide treatments applied at seeding was grown at the same time. At 2-3 leaf stage, the herbicides only or in combination with the insecticide, if the insecticide has not been applied at seeding, was applied broadcast foliar over the top. At highest phytotoxicity levels for corn at five days after application and at maximal weed control levels at 16 days after application, the trial was evaluated.

Corn ‘NK58D1 = assay: Field test, corn phytotoxicity after herbicide with or without insecticide (Table I); conditions: scale 0-100
Method: as §1

Sweet Corn ‘Jubilee SS = assay: Field test, sweet corn phytotoxicity after herbicide with or without insecticide (Table I); conditions: scale 0-100
Method: as §1

Corn Cecilia = assay: Glasshouse test, insecticide pre-plant incorporated followed by post application of herbicide, corn phytotoxicity (Table 2); conditions: no insecticide, 20 days after last application
From the text: (§2) Insecticide Pre-Plant Incorporated Followed by Post Application of the Herbicide
(§3) Prior to the planting of corn and weed, the substrate was filled into plastic pots and the different insecticides were applied with glasshouse spray equipment on bare soil at rates indicated in the results table. After the insecticide application, the substrate in the pots was mixed up in order to get an even distribution of the insecticide throughout the pot Crop and weed were planted following this procedure and grown under standard glasshouse conditions allowing optimal plant growth until 2-3 leaf stage. Then the herbicides were applied according to the rates indicated in the results table post emergent foliar over the top including standard adjuvants. The plants were visually evaluated on a scale of 0-100% wherein 0% indicated no phytotoxicity and 100% indicated full control or death. 0-15% indicates acceptable crop tolerance, 85-100% acceptable weed control. The evaluation was done at the time when maximal phytotoxicity or activity occurred.

Solanum Nigrum [1] = assay: Glasshouse test, insecticide pre-plant incorporated followed by post application of herbicide, weed control (Table 2); conditions: no insecticide, 43 days after last application
From the text: as §2, §3

Corn Sweet honeycomb = assay: Glasshouse test, insecticide and herbicide tank-mixed post emergent, corn phytotoxicity (Table 3); conditions: no insecticide, 8 days after last application
From the text: (§4) Insecticide and Herbicide Applied Tank-Mixed Post Emergent
as §3, with “pots.” for “pots and the different insecticides were applied with glasshouse spray equipment on bare soil at rates indicated in the results table. After the insecticide application, the substrate in the pots was mixed up in order to get an even distribution of the insecticide throughout the pot”, “according” for “according to”

Solanum Nigrum [2] = assay: Glasshouse test, insecticide and herbicide tank-mixed post emergent, weed control (Table 3); conditions: no insecticide, 34 days after last application
From the text: as §4
as §3, with “pots.” for “pots and the different insecticides were applied with glasshouse spray equipment on bare soil at rates indicated in the results table. After the insecticide application, the substrate in the pots was mixed up in order to get an even distribution of the insecticide throughout the pot”, “according” for “according to”

[3] = insecticide alone, in furrow at seeding 11.2 GA/100 Row M, 16 days
[4] = insecticide alone, in furrow at seeding 11.2 GA/100 Row M, 5 days
[5] = herbicide post, mesotrione 210 GA/Ha (a.e. for Cu), no insecticide, 5 days after last application
[6] = herbicide post 400 GA/Ha, scale 0-100
[7] = insecticide alone, post 1120 GA/Ha, 5 days

## CCOP(=S)(OCC)SCSC(C)(C)C [Terbufos]
Amaranthus retroflexus; [3]
  Weed Control: 0%
Corn ‘NK58D1; [4]
  Phytotox.: 0%
Sweet Corn ‘Jubilee SS; [4]
  Phytotox.: 0%

## CS(=O)(=O)c1ccc(C(=O)C2C(=O)CCCC2=O)c([N+](=O)[O-])c1 [Mesotrione, 2-(2′-nitro-4′-methylsulphonylbenzoyl)-1,3-cyclohexanedione]
Amaranthus retroflexus; herbicide post, mesotrione 105 GA/Ha (a.e. for Cu), no insecticide, 16 days after last application
  Weed Control: 90%
Amaranthus retroflexus; herbicide post, mesotrione 210 GA/Ha (a.e. for Cu), no insecticide, 16 days after last application
  Weed Control: 95%
Corn ‘NK58D1; herbicide post, mesotrione 105 GA/Ha (a.e. for Cu), no insecticide, 5 days after last application, COC 1% V/V + UAN 2.5% V/V
  Phytotox.: 3.8%
Corn ‘NK58D1; [5]
  Phytotox.: 8.8%
Corn Cecilia; herbicide post 100 GA/Ha
  Phytotox.: 5%
Corn Cecilia; herbicide post 200 GA/Ha
  Phytotox.: 0%
Corn Cecilia; [6]
  Phytotox.: 0%
Sweet Corn ‘Jubilee SS; herbicide post, mesotrione 105 GA/Ha (a.e. for Cu), no insecticide, 5 days after last application
  Phytotox.: 16.3%
Sweet Corn ‘Jubilee SS; [5]
  Phytotox.: 15%
Solanum Nigrum [1]; herbicide post 100 GA/Ha
  Weed Control: 98%
Solanum Nigrum [1]; herbicide post 200 GA/Ha
  Weed Control: 100%
Solanum Nigrum [1]; [6]
  Weed Control: 0%
Corn Sweet honeycomb; herbicide post 100 GA/Ha
  Phytotox.: 10%
Corn Sweet honeycomb; herbicide post 200 GA/Ha
  Phytotox.: 20%
Corn Sweet honeycomb; [6]
  Phytotox.: 20%
Solanum Nigrum [2]; herbicide post 100 GA/Ha
  Weed Control: 100%
Solanum Nigrum [2]; herbicide post 200 GA/Ha
  Weed Control: 100%
Solanum Nigrum [2]; [6]
  Weed Control: 100%

## CCOP(=S)(OCC)Oc1nc(Cl)c(Cl)cc1Cl [Chlorpyrifos]
Amaranthus retroflexus; [3]
  Weed Control: 0%
Amaranthus retroflexus; insecticide alone, post 1120 GA/Ha, 16 days
  Weed Control: 0%
Corn ‘NK58D1; [4]
  Phytotox.: 0%
Corn ‘NK58D1; [7]
  Phytotox.: 0%
Sweet Corn ‘Jubilee SS; [4]
  Phytotox.: 0%
Sweet Corn ‘Jubilee SS; [7]
  Phytotox.: 0%
